Measurements as given in publication PMC11324870, “Branched-chain amino acid transaminase 1 confers EGFR-TKI resistance through epigenetic glycolytic activation” (Signal Transduction and Targeted Therapy, 2024).

Molecular target: T1, BCAT1 (branched-chain amino acid transaminase 1) (Homo sapiens, UniProt P54687)
T1 construct: recombinant human BCAT1 Protein (Sino Biological, #ME16FE2265)
T1 sequence (P54687 1-386): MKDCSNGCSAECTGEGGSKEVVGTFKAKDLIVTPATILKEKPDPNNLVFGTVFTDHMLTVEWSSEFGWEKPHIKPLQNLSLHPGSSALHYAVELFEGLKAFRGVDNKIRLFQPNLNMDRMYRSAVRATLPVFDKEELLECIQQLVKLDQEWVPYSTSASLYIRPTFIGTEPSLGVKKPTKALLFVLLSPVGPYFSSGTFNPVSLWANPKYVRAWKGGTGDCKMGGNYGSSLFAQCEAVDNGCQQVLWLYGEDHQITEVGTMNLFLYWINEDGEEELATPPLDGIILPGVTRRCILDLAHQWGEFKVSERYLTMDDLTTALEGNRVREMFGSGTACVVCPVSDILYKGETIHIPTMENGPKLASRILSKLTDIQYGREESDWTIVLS
Experiment: coupled fluorescence (resazurin) enzyme activity assay with purified recombinant BCAT1; also CETSA in […] cells
Type: biochemical

## NCC1(CC(=O)O)CC2CCC1C2 (racemic) [WQQ-345]
  IC50: 10.8 mM
